Results from publication PMC11826341 (PNAS Nexus, 2025).
Entries after “also recorded” stand apart in the source; their conditions may differ.

Experiments:
[1] = system: cultured hippocampal neurons
[2] = system: cultured hippocampal neurons; conditions: 48 h
[3] = system: sEPSCNMDAR, synaptic NMDARs of cultured hippocampal neurons; type: cell-based, rat

Question: For `N[C@H](CCCP(=O)(O)O)C(=O)O` [AP5, (2R)-amino-5-phosphonovaleric acid], which “Neuroprotection against STRO” value [1] is on record?
Answer: did not exert neuroprotection

Question: For `CN[C@H](CC(=O)O)C(=O)O` [NMDA, N-methyl-D-aspartate], which Neurons killed [2] is on record?
Answer: ~80%

Question: With `CN[C@@H]1C[C@H]2O[C@@](C)([C@@H]1OC)n1c3ccccc3c3c4c(c5c6ccccc6n2c5c31)C(=O)NC4` [STRO, staurosporine] as the molecule, how does the Apoptotic neurons [1] read?
Answer: 30.85%

Question: What about the “Dead (apoptotic) neurons” value [1] of the same molecule?
Answer: 76.99%

Question: `CC(C(O)c1ccc(O)cc1)N1CCC(Cc2ccccc2)CC1` (centres unmarked) [ifenprodil] was tested. Which “sEPSCNMDAR amplitude” value [3] did it give?
Answer: strongly reduced amplitudes; also recorded: significantly less so in mature neurons
